Converted amounts (≈) assume the structure as drawn.
Key:
[1] = Clinical Pharmacology Study PPI (esomeprazole) cohort: single-dose PK; format: in vivo, human; conditions: 200 mg
Description: Study Design: The Clinical Pharmacology Study consists of 3 independent cohorts: 1) an open-label, randomized, 2-period, crossover Fed/Fasted cohort to determine food effects; 2) an open-label, 2-period, fixed sequence PPI cohort to evaluate interactions with esomeprazole; and 3) an open-label, randomized, 2 period, crossover rBA cohort to evaluate 2 tablet formulations.

T47D cells = test: Live-cell imaging proliferation, T47D; format: cell-based; conditions: Homo sapiens, 144 h, up to 6 days
Description: Full growth of the cells over this time period is shown by extent of cell confluence with dimethyl sulfoxide (DMSO).

SALL4 = target: T1, SALL4 (Homo sapiens, UniProt Q9UJQ4); test: Cereblon neomorphic substrate degradation, SALL4; format: cell-based
T1 construct: host or cells: two unnamed cell lines
Description: These drugs bind to cereblon and promote the degradation of novel (neomorphic) substrates.

[2] = 3-month GLP oral toxicity study in rats; format: in vivo, rat; conditions: for AUC(0-t) / Cmax: po, 300 mg/kg/day
Method: Male and female rats, 10/sex/group, were administered 0 (vehicle), 30, 100, or 300 mg/kg/day. Assessment of toxicity was based on mortality, clinical observations, BWs, food consumption, ophthalmic examinations, and clinical and anatomic pathology. Blood samples for TK were obtained from a satellite group of animals.

[3] = 7-day oral dose range finding toxicity study in dogs; format: in vivo; conditions: dog, up to 120 mg/kg/day, 7 days
[4] = 3-month GLP oral toxicity study in dogs; format: in vivo, dog; conditions: for Cmax / AUC(0-t): plasma, po, Day 91; for AUC(0-t): read-out: AUC0-24
Method: Male and female Beagle dogs, 4/sex/group, were administered 0 (vehicle), 10, 30, or 90 mg/kg/day. Assessment of toxicity was based on clinical observations, BWs, food consumption, ophthalmology, ECG evaluations, and clinical and anatomic pathology.

[5] = Preclinical PK after PO or intravenous dose; set-up: species or system mouse, dog, and monkey; conditions: rat, in vivo
BCRP = BCRP (Homo sapiens, UniProt Q9UNQ0); test: Efflux transporter substrate assessment (inside-out vesicular assay), BCRP; format: in vitro ADME
[6] = Solubility in phosphate buffer; format: physicochemical; conditions: aqueous buffer; phosphate buffer at pH 7.4
[7] = system: cultured human peripheral blood lymphocytes; test: In vitro micronucleus assay; format: cell-based; conditions: 3+21 hours ± S9; 24+24 hours −S9
Method: Compound A was tested in a GLP-compliant in vitro micronucleus assay.

reticulocytes = test: Rat micronucleus test; format: in vivo; conditions: 400, 800, 1600 mg/kg/day, two days
[8] = Biopharmaceutics Classification System; format: physicochemical; conditions: low solubility/low permeability
[9] = in vivo
Description: TEAE's from participants in both studies have been combined and are described below.

[10] = Clinical Pharmacology Study: adverse events in healthy volunteers
Description: The severity of adverse events was graded according to the National Cancer Institute Common Terminology Criteria for Adverse Events (NCI CTCAE) version 5.0.

ER = target: T2, ER (Homo sapiens, UniProt P03372); test: ER degradation in ER+ cell lines (MCF7); format: cell-based; set-up: endogenous in cells; host or cells: MCF7 (and a panel of unnamed ER+ cell lines); conditions: MCF7 cells
T2 sequence (P03372 1-595): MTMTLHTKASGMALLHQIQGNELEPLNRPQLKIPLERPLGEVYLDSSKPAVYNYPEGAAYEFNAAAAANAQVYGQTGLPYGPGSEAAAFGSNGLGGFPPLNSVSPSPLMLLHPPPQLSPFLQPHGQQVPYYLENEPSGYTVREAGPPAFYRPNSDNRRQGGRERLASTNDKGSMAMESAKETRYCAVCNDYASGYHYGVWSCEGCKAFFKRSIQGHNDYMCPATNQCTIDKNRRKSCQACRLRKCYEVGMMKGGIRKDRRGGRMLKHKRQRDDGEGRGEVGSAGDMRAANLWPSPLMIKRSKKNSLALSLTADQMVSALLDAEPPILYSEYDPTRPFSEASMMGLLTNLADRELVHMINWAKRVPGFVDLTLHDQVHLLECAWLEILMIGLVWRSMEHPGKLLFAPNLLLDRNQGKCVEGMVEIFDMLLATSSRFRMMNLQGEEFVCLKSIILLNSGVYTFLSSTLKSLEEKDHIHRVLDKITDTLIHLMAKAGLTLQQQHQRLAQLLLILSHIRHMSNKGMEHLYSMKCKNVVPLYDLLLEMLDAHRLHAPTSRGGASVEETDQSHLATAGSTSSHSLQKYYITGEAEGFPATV

[11] = Beagle, dog, female dogs, 90 mg/kg/day
[12] = Beagle, dog, male dogs, 90 mg/kg/day

T1 sequence (Q96SW2 whole entry partner, species assumed): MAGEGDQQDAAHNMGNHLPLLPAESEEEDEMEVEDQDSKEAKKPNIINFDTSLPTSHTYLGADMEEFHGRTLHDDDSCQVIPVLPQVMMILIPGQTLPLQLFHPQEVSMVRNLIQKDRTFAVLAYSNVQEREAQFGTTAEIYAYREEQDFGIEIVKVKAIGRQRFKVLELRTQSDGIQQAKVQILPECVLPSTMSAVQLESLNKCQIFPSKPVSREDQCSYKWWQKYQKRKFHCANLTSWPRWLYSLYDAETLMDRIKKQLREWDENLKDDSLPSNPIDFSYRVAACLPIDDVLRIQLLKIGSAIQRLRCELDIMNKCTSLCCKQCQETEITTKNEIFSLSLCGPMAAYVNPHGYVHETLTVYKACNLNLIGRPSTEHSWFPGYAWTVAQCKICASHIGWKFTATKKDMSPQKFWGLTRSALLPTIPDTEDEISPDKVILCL
T1 sequence (Q16531 whole entry partner, species assumed): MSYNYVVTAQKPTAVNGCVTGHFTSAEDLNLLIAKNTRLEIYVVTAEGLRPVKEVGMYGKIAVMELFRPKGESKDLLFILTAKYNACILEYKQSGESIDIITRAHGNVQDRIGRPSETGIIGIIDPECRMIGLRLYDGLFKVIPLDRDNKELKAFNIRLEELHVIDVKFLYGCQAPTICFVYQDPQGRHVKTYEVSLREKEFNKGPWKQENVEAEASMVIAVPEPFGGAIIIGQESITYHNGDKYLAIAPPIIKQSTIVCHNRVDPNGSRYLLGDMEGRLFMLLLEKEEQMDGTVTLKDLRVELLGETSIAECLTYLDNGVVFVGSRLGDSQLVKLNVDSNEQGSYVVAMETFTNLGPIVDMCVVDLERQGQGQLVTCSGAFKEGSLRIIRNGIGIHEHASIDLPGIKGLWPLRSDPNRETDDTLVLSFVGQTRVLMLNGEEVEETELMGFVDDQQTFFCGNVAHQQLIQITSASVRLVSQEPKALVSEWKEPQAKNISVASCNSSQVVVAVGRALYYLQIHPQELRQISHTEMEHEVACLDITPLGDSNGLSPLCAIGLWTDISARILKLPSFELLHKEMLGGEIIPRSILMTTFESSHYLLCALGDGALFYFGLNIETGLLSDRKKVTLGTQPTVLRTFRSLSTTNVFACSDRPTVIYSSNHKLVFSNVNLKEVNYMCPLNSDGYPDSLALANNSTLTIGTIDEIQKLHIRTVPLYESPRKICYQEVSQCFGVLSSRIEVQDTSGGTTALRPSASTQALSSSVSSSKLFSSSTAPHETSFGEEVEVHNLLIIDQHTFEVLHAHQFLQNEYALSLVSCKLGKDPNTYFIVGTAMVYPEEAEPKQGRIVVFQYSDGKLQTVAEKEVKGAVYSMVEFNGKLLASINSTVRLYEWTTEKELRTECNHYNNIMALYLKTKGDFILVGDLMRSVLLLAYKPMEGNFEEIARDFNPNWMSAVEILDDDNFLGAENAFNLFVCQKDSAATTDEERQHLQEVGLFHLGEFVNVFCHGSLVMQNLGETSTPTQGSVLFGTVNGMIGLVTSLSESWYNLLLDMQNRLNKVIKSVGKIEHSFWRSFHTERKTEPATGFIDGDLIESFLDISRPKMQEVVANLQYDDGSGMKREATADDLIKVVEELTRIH
T1 sequence (Q9UJQ4 whole entry, species assumed): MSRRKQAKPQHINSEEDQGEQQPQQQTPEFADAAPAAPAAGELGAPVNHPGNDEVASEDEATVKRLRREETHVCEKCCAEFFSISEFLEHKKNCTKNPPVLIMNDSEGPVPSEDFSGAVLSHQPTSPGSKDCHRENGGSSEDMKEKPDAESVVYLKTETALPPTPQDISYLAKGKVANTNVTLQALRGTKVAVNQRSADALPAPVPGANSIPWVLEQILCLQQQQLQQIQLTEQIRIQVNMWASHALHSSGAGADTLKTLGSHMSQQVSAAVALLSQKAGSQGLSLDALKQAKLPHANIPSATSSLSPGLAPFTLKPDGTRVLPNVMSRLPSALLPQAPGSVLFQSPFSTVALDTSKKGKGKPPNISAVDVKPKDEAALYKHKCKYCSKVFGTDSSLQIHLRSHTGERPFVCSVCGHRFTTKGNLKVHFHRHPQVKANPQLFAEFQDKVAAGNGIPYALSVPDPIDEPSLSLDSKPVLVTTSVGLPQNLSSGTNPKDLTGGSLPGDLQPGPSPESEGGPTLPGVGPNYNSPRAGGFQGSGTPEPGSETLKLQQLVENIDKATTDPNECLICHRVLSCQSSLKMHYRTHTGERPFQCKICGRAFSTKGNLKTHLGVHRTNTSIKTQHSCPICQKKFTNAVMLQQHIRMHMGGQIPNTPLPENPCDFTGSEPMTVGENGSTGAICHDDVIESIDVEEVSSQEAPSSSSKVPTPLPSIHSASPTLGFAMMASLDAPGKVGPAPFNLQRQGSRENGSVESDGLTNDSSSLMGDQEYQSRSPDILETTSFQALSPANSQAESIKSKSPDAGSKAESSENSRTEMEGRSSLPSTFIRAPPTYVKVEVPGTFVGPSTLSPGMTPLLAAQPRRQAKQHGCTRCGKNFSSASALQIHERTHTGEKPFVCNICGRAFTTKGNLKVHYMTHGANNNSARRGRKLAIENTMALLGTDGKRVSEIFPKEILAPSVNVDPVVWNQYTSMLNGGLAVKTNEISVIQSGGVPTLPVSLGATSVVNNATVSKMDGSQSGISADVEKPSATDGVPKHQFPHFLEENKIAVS
Sequence of BCRP (Q9UNQ0 whole entry): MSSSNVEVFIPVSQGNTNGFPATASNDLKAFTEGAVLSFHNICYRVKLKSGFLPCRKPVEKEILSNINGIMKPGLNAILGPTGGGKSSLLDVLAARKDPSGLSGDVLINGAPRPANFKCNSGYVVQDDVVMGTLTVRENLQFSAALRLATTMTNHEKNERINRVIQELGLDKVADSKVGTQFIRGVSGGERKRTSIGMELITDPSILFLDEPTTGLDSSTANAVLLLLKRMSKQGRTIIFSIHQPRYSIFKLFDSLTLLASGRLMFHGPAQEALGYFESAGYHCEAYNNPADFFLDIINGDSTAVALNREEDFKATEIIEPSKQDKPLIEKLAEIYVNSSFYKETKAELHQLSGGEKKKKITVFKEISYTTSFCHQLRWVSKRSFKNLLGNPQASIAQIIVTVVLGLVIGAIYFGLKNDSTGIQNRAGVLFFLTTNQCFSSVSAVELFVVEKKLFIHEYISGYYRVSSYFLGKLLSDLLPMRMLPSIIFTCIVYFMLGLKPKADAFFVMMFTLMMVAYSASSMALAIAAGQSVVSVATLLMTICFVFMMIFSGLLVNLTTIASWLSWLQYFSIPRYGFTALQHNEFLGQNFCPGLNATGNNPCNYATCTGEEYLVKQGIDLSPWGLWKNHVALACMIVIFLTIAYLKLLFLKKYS

SMILES: O=C1CC[C@H](N2Cc3cc(N4CCN(CC5CCN(c6ccc([C@@H]7c8ccc(O)cc8CC[C@@H]7c7ccccc7)cc6)CC5)CC4)ccc3C2=O)C(=O)N1 [Compound A, (S)-3-(5-(4-((1-(4-((1R,2S)-6-hydroxy-2-phenyl-1,2,3,4-tetrahydronaphthalen-1-yl)phenyl)piperidin-4-yl)methyl)piperazin-1-yl)-1-oxoisoindolin-2-yl)piperidine-2,6-dione]
- AUC with PPI vs without PPI [1]: similar
- decrease of median Cmax by PPI [1]: about 18%
- decrease of AUCinf by multiple doses of esomeprazole 40 mg ([1]; moderate-fat meal): 11%
- decrease of Cmax by multiple doses of esomeprazole 40 mg ([1]; moderate-fat meal): 17.1%
- GI50 (T47D cells): 1.7 nM
- degradation of SALL4 (SALL4; a different cell line): no SALL4 degradation
- degradation of SALL4 (SALL4; one cell line): some degradation activity
- sex differences in Cmax and AUC0-24 ([2]; both, rat, in vivo): less than 2 fold
- NOAEL ([2]; female rats, 3 months oral): a NOAEL was not determined
- AUC(0-t) ([2]; female, rat, in vivo): 75 µg·h/mL
- Cmax ([2]; female, rat, in vivo): 3.71 µg/mL
- AUC(0-t) ([2]; male, rat, in vivo): 88.5 µg·h/mL
- Cmax ([2]; male, rat, in vivo): 4.33 µg/mL
- NOAEL at 3 months ([2]; rat, in vivo, male rats, 3 months oral): 300 mg/kg/day
- tolerability [3]: well tolerated
- NOAEL at 3 months ([4]; Beagle, dog, in vivo, oral, male dogs, 3 months): 90 mg/kg/day
- Cmax [4, 11]: 4.25 µg/mL
- AUC(0-t) [4, 11]: 73.1 µg·h/mL
- Cmax [4, 12]: 4.88 µg/mL
- AUC(0-t) [4, 12]: 83.5 µg·h/mL
- ECG intervals ([4]; dog, 90 mg/kg/day, Day 85): nonadverse increases in QT-, QTc-, and PR-intervals
- NOAEL ([4]; female dogs, 3 months): A NOAEL was not identified
- bioavailability ([5]; mouse, dog, monkey, po, range across species): 27 to 65%
- half-life ([5]; mouse, dog, monkey, range across species): 2.1 to 8.2 h
- Vd ([5]; intravenous, read-out: VSS): 6 L/kg
- substrate of BCRP (BCRP): unlikely to be a substrate
- solubility [6]: 1.5 µg/mL (≈ 2.07 µM)
- frequency of micronuclei [7]: did not induce biologically relevant increases
- chromosomal damage in reticulocytes (reticulocytes): did not induce chromosomal damage
- Biopharmaceutics Classification System class [8]: Class IV
- deaths [9]: No deaths were reported
- TRAEs of Grade 2 or higher ([10]; 200 mg, healthy participants): no TRAEs of Grade 2 or higher were reported
- tolerability ([10]; 200 mg, healthy participants): well-tolerated
- Grade 1 TEAEs ([10]; Fast/Fed cohort): 21.4%
- Grade 2 TEAEs ([10]; Fast/Fed cohort): 14.3%
- Grade 3 or higher TEAEs ([10]; Fast/Fed cohort): No participants reported Grade 3 or higher TEAEs
- TEAE ligament sprain ([10]; Fast/Fed cohort n=14): 14.3%
- TRAE pollakiuria ([10]; Fast/Fed cohort n=14): 7.1%
- Grade 1 TEAEs ([10]; PPI cohort): 47.1%
- Grade 2 TEAEs ([10]; PPI cohort): 5.9%
- Grade 3 or higher TEAEs ([10]; PPI cohort): No participants reported Grade 3 or higher TEAEs
- TRAEs nausea, headache, pruritus, each ([10]; PPI cohort): 5.9%
- TEAE Headache ([10]; PPI cohort n=17): 29.4%
- participants with at least 1 TRAE ([10]; PPI cohort n=17): 11.8%
- participants with TEAE leading to discontinuation ([10]; PPI cohort, due to COVID): One
- SAEs, SARs, deaths ([10]; all cohorts): No SAEs, SARs or deaths were reported
- participants with at least 1 TRAE ([10]; all cohorts): 3 of 47 participants
- participants with TEAEs ([10]; all cohorts, 200 mg): 15 of 47 participants
- TRAEs ([10]; rBA cohort n=16): No participants reported a TRAE
- participants with a TEAE (dizziness, Grade 1) ([10]; rBA cohort n=16): 6.3%
- ER degradation with excess lenalidomide or with carfilzomib (ER): No degradation of ER
- maximum ER degradation (ER): > 90%

— patent publication US20260069588A1, “VEPDEGESTRANT FOR USE IN TREATING CANCER” (Arvinas Operation, Inc., priority 2022, published 2026)
